US20020026053A1, “Novel 3-(substituted) -2- indolinones compounds and use thereof as inhibitors of protein kinase activity” (priority 1997, published 2002)
Where “and” joins values, the source holds several entries; their conditions need not be identical. Equal values may be shown once.

Experiments:
[1] = test system: FLK-1 receptor; experiment: FLK-1 Assay (cellular/catalytic ELISA, VEGF-stimulated phosphotyrosine); format: cell-based; parameters: concentration or dose not given beside the values
Protocol: (§1) The cellular/catalytic assays described herein are performed in an ELISA format. The general procedure is as follows: a compound is introduced to cells expressing the test kinase, either naturally or recombinantly, for a selected period of time after which, if the test kinase is a receptor, a ligand known to activate the receptor is added. The cells are lysed and the lysate is transferred to the wells of an ELISA plate previously coated with a specific antibody recognizing the substrate of the enzymatic phosphorylation reaction. Non-substrate components of the cell lysate are washed away and the amount of phosphorylation on the substrate is detected with an antibody specifically recognizing phosphotyrosine compared with control cells that were not contacted with a test compound.
An ELISA assay is conducted to measure the kinase activity of the FLK-1 receptor and more specifically, the inhibition or activation of TK activity on the FLK-1 receptor. Specifically, the following assay can be conducted to measure kinase activity of the FLK-1 receptor in cells genetically engineered to express Flk-1.
a. Corning 96-well ELISA plates (Corning Catalog No. 25805-96);
b. Cappel goat anti-rabbit IgG (catalog no. 55641);
c. PBS (Gibco Catalog No. 450-1300EB);
d. TBSW Buffer (50 mM Tris (pH 7.2), 150 mM NaCl and 0.1% Tween-20);
e. Ethanolamine stock (10% ethanolamine (pH 7.0), stored at 4° C.);
f. HNTG buffer (20 mM HEPES buffer (pH 7.5), 150 mM NaCl, 0.2% Triton X-100, and 10% glycerol);
g. EDTA (0.5 M (pH 7.0) as a 100× stock);
h. Sodium orthovanadate (0.5 M as a 100× stock);
i. Sodium pyrophosphate (0.2 M as a 100× stock);
j. NUNC 96 well V bottom polypropylene plates (Applied Scientific Catalog No. AS-72092);
k. NIH3T3 C7#3 Cells (FLK-1 expressing cells);
l. DMEM with 1× high glucose L-Glutamine (catalog No. 11965-050);
n. L-glutamine, Gibco (catalog no. 25030-016);
o. VEGF, PeproTech, Inc. (catalog no. 100-20)(kept as 1 μg/100 μl stock in Milli-Q dH2O and stored at −20° C.;
p. Affinity purified anti-FLK-1 antiserum;
q. UB40 monoclonal antibody specific for phosphotyrosine (see, Fendley, et al., 1990, Cancer Research 50:1550-1558);
r. EIA grade Goat anti-mouse IgG-POD (BioRad catalog no. 172-1011);
s. 2,2-azino-bis(3-ethylbenz-thiazoline-6-sulfonic acid (ABTS) solution (100 mM citric acid (anhydrous), 250 mM Na2HPO4 (pH 4.0), 0.5 mg/ml ABTS (Sigma catalog no. A-1888)), solution should be stored in dark at 4° C. until ready for use;
t. H2O2 (30% solution) (Fisher catalog no. H325);
u. ABTS/ H2O2 (15 ml ABTS solution, 2 μl H2O2) prepared 5 minutes before use and left at room temperature;
v. 0.2 M HCl stock in H2O;
w. dimethylsulfoxide (100%) (Sigma Catalog No. D-8418); and
y. Trypsin-EDTA (Gibco BRL Catalog No. 25200-049).
1. Coat Corning 96-well ELISA plates with 1.0 μg per well Cappel Anti-rabbit IgG antibody in 0.1M Na2CO3 pH 9.6. Bring final volume to 150 μl per well. Coat plates overnight at 4° C. Plates can be kept up to two weeks when stored at 4° C.
2. Grow cells in Growth media (DMEM, supplemented with 2.0 mM L-Glutamine, 10% FBS) in suitable culture dishes until confluent at 37° C., 5% CO2.
3. Harvest cells by trypsinization and seed in Corning 25850 polystyrene 96-well round bottom cell plates, 25,000 cells/well in 200 μl of growth media.
4. Grow cells at least one day at 37° C., 5% CO2.
5. Wash cells with D-PBS 1×.
6. Add 200 μl/well of starvation media (DMEM, 2.0 mM 1-Glutamine, 0.1% FBS). Incubate overnight at 37° C., 5% CO2.
7. Dilute Compounds 1:20 in polypropylene 96 well plates using starvation media. Dilute dimethylsulfoxide 1:20 for use in control wells.
8. Remove starvation media from 96 well cell culture plates and add 162 μl of fresh starvation media to each well.
9. Add 18 μl of 1:20 diluted compound dilution (from step 7) to each well plus the 1:20 dimethylsulfoxide dilution to the control wells (+/− VEGF), for a final dilution of 1:200 after cell stimulation. Final dimethylsulfoxide is 0.5%. Incubate the plate at 37° C., 5% CO2 for two hours.
10. […]

[2] = test system: PDGF-R; experiment: PDGF-R Assay (cellular ELISA, U1242 cells); format: cell-based; parameters: concentration or dose not given beside the values
Protocol: as §1
All cell culture media, glutamine, and fetal bovine serum can be purchased from Gibco Life Technologies (Grand Island, N.Y.) unless otherwise specified. All cells are grown in a humid atmosphere of 90-95% air and 5-10% CO2 at 37° C. All cell lines are routinely subcultured twice a week and are negative for mycoplasma as determined by the Mycotect method (Gibco).
For ELISA assays, cells (U1242, obtained from Joseph Schlessinger, NYU) are grown to 80-90% confluency in growth medium (MEM with 10% FBS, NEAA, 1 mM NaPyr and 2 mM GLN) and seeded in 96-well tissue culture plates in 0.5% serum at 25,000 to 30,000 cells per well. After overnight incubation in 0.5% serum-containing medium, cells are changed to serum-free medium and treated with test compound for 2 hr in a 5% CO2, 37° C. incubator. Cells are then stimulated with ligand for 5-10 minute followed by lysis with HNTG (20 mM Hepes, 150 mM NaCl, 10% glycerol, 5 mM EDTA, 5 mM Na3VO4, 0.2% Triton X-100, and 2 mM NaPyr). Cell lysates (0.5 mg/well in PBS) are transferred to ELISA plates previously coated with receptor-specific antibody and which had been blocked with 5% milk in TBST (50 mM Tris-HCl pH 7.2, 150 mM NaCl and 0.1% Triton X-100) at room temperature for 30 min. Lysates are incubated with shaking for 1 hour at room temperature. The plates are washed with TBST four times and then incubated with polyclonal anti-phosphotyrosine antibody at room temperature for 30 minutes. Excess anti-phosphotyrosine antibody is removed by rinsing the plate with TBST four times. Goat anti-rabbit IgG antibody is added to the ELISA plate for 30 min at room temperature followed by rinsing with TBST four more times. ABTS (100 mM citric acid, 250 mM Na2HPO4 and 0.5 mg/mL 2,2′-azino-bis (3-ethylbenzthiazoline-6-sulfonic acid)) plus H2O2 ([…] 30% H2O2 to 10 ml ABTS) is added to the ELISA plates to start color development. Absorbance at 410 nm with a reference wavelength of 630 nm is recorded about 15 to 30 min after ABTS addition.

| Structure (SMILES) | Flk Kinase % Inhibition (P.110) [1] | PDGF Kinase % Inhibition (P.119) [2] |
| --- | --- | --- |
| Cc1c(Br)cc(Br)c2c1C(=Cc1ccc(F)cc1)C(=O)N2 [10717/H05] | 5.0% | – |
| Cc1c(Br)cc(Br)c2c1C(=Cc1c[nH]c3ccccc13)C(=O)N2 [10717/H06] | 12.5% | – |
| Cc1ccc(C=C2C(=O)Nc3c(Br)cc(Br)c(C)c32)s1 [10717/H07] | 1.1% | – |
| Cc1c(Br)cc(Br)c2c1C(=Cc1ccc(Br)cc1)C(=O)N2 [10717/H08] | −8.4% | – |
| Cc1c(Br)cc(Br)c2c1C(=Cc1ccc[nH]1)C(=O)N2 [10717/H09] | −17.5% | – |
| COc1cccc(O)c1C=C1C(=O)Nc2c(Br)cc(Br)c(C)c21 [10717/H10] | −5.0% | – |
| Cc1[nH]c(C=C2C(=O)Nc3c(Br)cc(Br)c(C)c32)c(Br)c1Br [10717/H11] | −0.4% | – |
| Cc1c(Br)cc(Br)c2c1C(=Cc1ccc(Br)o1)C(=O)N2 [10726/H05] | −6.1% | −38.0% |
| Cc1cn(C)cc1C=C1C(=O)Nc2c(Br)cc(Br)c(C)c21 [10726/H06] | 17.5% | −20.9% |
| Cc1c(Br)cc(Br)c2c1C(=Cc1cc(O)c3c(c1O)CCCC3)C(=O)N2 [10726/H07] | −9.5% | −30.4% |
| Cc1c(Br)cc(Br)c2c1C(=C1C(=O)Nc3ccc(F)cc31)C(=O)N2 [10726/H08] | −15.0% | 15.1% |
| Cc1c(Br)cc(Br)c2c1C(=C1C(=O)Nc3ccccc31)C(=O)N2 [10726/H09] | 1.5% | 15.1% |
| CCc1ccc(C=C2C(=O)Nc3c(Br)cc(Br)c(C)c32)s1 [10726/H10] | 11.0% | 6.9% |
| COc1ccc(C=C2C(=O)Nc3c(Br)cc(Br)c(C)c32)cc1 [10726/H11] | 12.9% | −0.1% |
| CCN(CC)c1ccc(C=C2C(=O)Nc3c(Br)cc(Br)c(C)c32)cc1 [10727/H02] | −1.2% | −33.6% |
| CCc1cc(CC)c(C=C2C(=O)Nc3c(Br)cc(Br)c(C)c32)[nH]1 [10727/H03] | 4.3% | −20.5% |
| Cc1c(Br)cc(Br)c2c1C(=Cc1cc(Cl)cc(Br)c1O)C(=O)N2 [10727/H04] | 1.8% | 13.7% |
| Cc1c(Br)cc(Br)c2c1C(=Cc1ccccc1Sc1ccc(Cl)cc1)C(=O)N2 [10727/H05] | 5.5% | −28.5% |

| Structure (SMILES) | Flk Kinase % Inhibition (P.110) [1] | PDGF Kinase % Inhibition (P.119) [2] |
| --- | --- | --- |
| Cc1c(Br)cc(Br)c2c1C(=Cc1cc3c(cc1Cl)OCO3)C(=O)N2 [10727/H06] | −4.4% | −40.8% |
| Cc1c(Br)cc(Br)c2c1C(=Cc1coc3ccccc3c1=O)C(=O)N2 [10727/H07] | −9.7% | −37.2% |
| Cc1c(Br)cc(Br)c2c1C(=Cc1cccc(C#N)c1)C(=O)N2 [10727/H08] | 2.9% | −27.0% |
| Cc1c(Br)cc(Br)c2c1C(=Cc1ccc(C#N)cc1)C(=O)N2 [10727/H09] | −1.4% | −11.7% |
| Cc1c(Br)cc(Br)c2c1C(=Cc1cc(O)ccc1O)C(=O)N2 [10727/H10] | −8.3% | 10.1% |
| COc1cccc(C=C2C(=O)Nc3c(Br)cc(Br)c(C)c32)c1OC [10727/H11] | 3.7% | 2.8% |
| COc1ccc(OC)c(C=C2C(=O)Nc3c(Br)cc(Br)c(C)c32)c1 [10728/H02] | −13.3% | −9.3% |
| COc1cccc(OC)c1C=C1C(=O)Nc2c(Br)cc(Br)c(C)c21 [10728/H03] | −2.1% | −10.6% |
| COc1cc(C=C2C(=O)Nc3c(Br)cc(Br)c(C)c32)cc(OC)c1 [10728/H04] | −4.3% | −5.7% |
| COc1cc(N(C)C)ccc1C=C1C(=O)Nc2c(Br)cc(Br)c(C)c21 [10728/H05] | 1.1% and −4.4% | −10.6% and −5.3% |
| Cc1c(Br)cc(Br)c2c1C(=Cc1ccc3c(c1)Cc1ccccc1-3)C(=O)N2 [10728/H06] | 7.9% | −25.7% |
| Cc1c(Br)cc(Br)c2c1C(=Cc1cccc(C(F)(F)F)c1F)C(=O)N2 [10728/H07] | 1.5% | −1.7% |
| Cc1c(Br)cc(Br)c2c1C(=Cc1c(F)cccc1C(F)(F)F)C(=O)N2 [10728/H09] | 0.7% | −6.2% |
| Cc1c(Br)cc(Br)c2c1C(=Cc1ccccc1OCC(=O)O)C(=O)N2 [10728/H10] | −3.8% | 4.5% |
| COc1cc(C=C2C(=O)Nc3c(Br)cc(Br)c(C)c32)cc2c1OCO2 [10728/H11] | 3.3% | −16.8% |
| COc1ccc2ccccc2c1C=C1C(=O)Nc2c(Br)cc(Br)c(C)c21 [10729/H02] | 14.3% | 2.3% |
| COc1ccc(C=C2C(=O)Nc3c(Br)cc(Br)c(C)c32)c2ccccc12 [10729/H03] | 18.3% | −0.7% |
